# According to patent publication US20230034660A1, “PEPTIDES THAT ENHANCE NMDA RECEPTOR FUNCTION AND USE THEREOF” (University of Pittsburgh - Of the Commonwealth System of …, priority 2019, published 2023):
# Biological target: T1, ZnT1 binding to GluN2A C-terminal peptide sequences (Mus musculus, UniProt Q60738)
# T1 construct: made in house; peptides: Fmoc spot synthesis on nitrocellulose
# T1 sequence (Q60738 1-503): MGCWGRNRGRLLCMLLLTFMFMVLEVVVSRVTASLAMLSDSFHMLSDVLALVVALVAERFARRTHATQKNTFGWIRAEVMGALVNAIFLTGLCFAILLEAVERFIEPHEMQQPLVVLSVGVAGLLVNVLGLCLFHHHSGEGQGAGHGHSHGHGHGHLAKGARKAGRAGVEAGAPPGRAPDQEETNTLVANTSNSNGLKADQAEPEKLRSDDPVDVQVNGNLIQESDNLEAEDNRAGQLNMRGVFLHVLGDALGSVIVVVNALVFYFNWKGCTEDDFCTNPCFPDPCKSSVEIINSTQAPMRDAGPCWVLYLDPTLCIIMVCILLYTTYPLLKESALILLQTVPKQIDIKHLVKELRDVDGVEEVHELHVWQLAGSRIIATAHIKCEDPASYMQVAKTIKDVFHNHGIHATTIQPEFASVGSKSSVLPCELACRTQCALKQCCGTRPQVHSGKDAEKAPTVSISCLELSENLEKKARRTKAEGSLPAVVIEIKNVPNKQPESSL
# Experiment: Peptide spot array repeated in the presence of N2AZ or scN2AZ
# Conditions: 100 μM, compared to scN2AZ control
# Protocol: FIG. 2: N2AZ reduces ZnT1 binding to GluN2A C-terminal peptide sequences. Quantification of peptide spot arrays of GluN2A C-terminus region (residues 1390-1464) using the same peptide segments as FIG. 1B (Peptides 1-61 correspond to fragments of SEQ ID NO: 21, as listed in Table 1). […] Mean±SEM (n=4). (Inset) Representative peptide spot-array in scN2AZ (top) and N2AZ (bottom).
# Far-Western protein-binding affinity assays were performed as previously described (Brittain et al., 2011; Yeh et al., 2017) (Moutal et al., 2017). Peptide spot arrays (15 mers) spanning the proximal C-terminus residues 1390-1464 of mouse GluN2A (Uniprot# P35436) in overlapping 1 aa steps were constructed using the Spots-synthesis method. Standard 9-fluorenylmethoxy carbonyl (Fmoc) chemistry was used to synthesize the peptides and spot them onto nitrocellulose membranes pre-derivatized with a polyethylene glycerol spacer (Intavis). […] Finally, the membrane was incubated in secondary antibody for 45 minutes, washed 3 times for 5 minutes in TBST, and visualized by infrared fluorescence (Li-Cor). […]
# To study the effect of ZnT1 on NMDAR modulation, a peptide was designed to disrupt the ZnT1-GluN2A interaction. […] Next, the peptide spot arrays were probed with flag-tagged ZnT1-enriched cell lysates and ZnT1 binding was visualized and quantified with immunofluorescence against the flag tag (FIG. 1A). […]
sequence,measurement,value
NDSYLRSSL [Peptide N2AZ],ZnT1 binding to the spot array in the presence of peptide,significantly reduced
